In patent US20250344697A1, “ENANTIOMERICALLY ENRICHED […] THE CONTROL OF RESISTANT PHYTOPATHOGENIC FUNGI” (SYNGENTA CROP PROTECTION AG, priority 2022, published 2025):

What was measured:
Test in all cases: in vitro antifungal test, Z. tritici spore suspension in PDB
Format in all cases: cell-based
[1] = test system: K9032 Zymoseptoria tritici CYP51 L50S D134G V136A I381V Y461H S524T; details: for EC50 (ppm): growth at 3 days post exposure, average of two replicates; for M = (EC50 (enantiomer)/EC50 (racemate)) − 0.5: (−)-enantiomer vs racemate
Description: (§1) A panel of 16 Zymoseptoria tritici isolates was subjected to in vitro antifungal tests. Spore suspensions of Z. tritici isolates were prepared in potato dextrose broth (PDB) and exposed to defined concentration ranges of the inhibitors (20ppm starting concentration, dilution steps of 3). A sensitive wild-type isolate was used together with a panel of strains containing variants of the Z. tritici CYP51 gene conferring resistance to DMI fungicides. The DMI-resistant isolates were isolated from wheat in the UK, Ireland, Germany and Russia in 2020. Determination of CYP51 gene variants was achieved using targeted gene sequencing. The half maximal effective concentration (EC50) of the inhibitors were calculated based on growth responses of Z. tritici at 3 days post exposure to the different concentrations of the […] using a linear regression. The Tables A and B show an average of EC50 values in ppm from two replicates, as well as M=(EC50 (enantiomer)/EC50 (racemate))−0.5.

[2] = test system: K9029 Zymoseptoria tritici CYP51 L50S I381V YG459 N513K; details: for EC50 (ppm): growth at 3 days post exposure, average of two replicates; for M = (EC50 (enantiomer)/EC50 (racemate)) − 0.5: (−)-enantiomer vs racemate; for effectiveness compared with the racemate (in words): isolate K9029, summary of Tables A and B
Description: as §1

[3] = test system: K9023 Zymoseptoria tritici CYP51 L50S V136C S188N A379G I381V YG459 S524T; details: for EC50 (ppm): growth at 3 days post exposure, average of two replicates; for M = (EC50 (enantiomer)/EC50 (racemate)) − 0.5: (−)-enantiomer vs racemate
Description: as §1

[4] = test system: K9021 Zymoseptoria tritici CYP51 L50S V136A I381V Y461S S524T; details: isolate K9021; for EC50 (ppm): growth at 3 days post exposure, average of two replicates; for M = (EC50 (enantiomer)/EC50 (racemate)) − 0.5: (−)-enantiomer vs racemate, below 0 = enantiomer outperforms racemate
Description: as §1

[5] = test system: K9020 Zymoseptoria tritici CYP51 L50S V136A I381V Y461S S524T; details: isolate K9020; for EC50 (ppm): growth at 3 days post exposure, average of two replicates; for M = (EC50 (enantiomer)/EC50 (racemate)) − 0.5: (−)-enantiomer vs racemate, below 0 = enantiomer outperforms racemate
Description: as §1

[6] = test system: K9022 Zymoseptoria tritici CYP51 L50S V136A I381V Y461S S524T; details: isolate K9022; for EC50 (ppm): growth at 3 days post exposure, average of two replicates; for M = (EC50 (enantiomer)/EC50 (racemate)) − 0.5: (−)-enantiomer vs racemate, below 0 = enantiomer outperforms racemate
Description: as §1

[7] = test system: K9026 Zymoseptoria tritici CYP51 L50S S188N A379G I381V YG459 N513K; details: for EC50 (ppm): growth at 3 days post exposure, average of two replicates; for M = (EC50 (enantiomer)/EC50 (racemate)) − 0.5: (−)-enantiomer vs racemate
Description: as §1

[8] = test system: K5544 Zymoseptoria tritici (WT); details: isolate K5544 (WT); for EC50 (ppm): growth at 3 days post exposure, average of two replicates; for M = (EC50 (enantiomer)/EC50 (racemate)) − 0.5: (−)-enantiomer vs racemate, below 0 = enantiomer outperforms racemate
Description: as §1

| SMILES | EC50 (ppm) ([1]; isolate K9032, 1st listed row) | EC50 (ppm) ([1]; isolate K9032, 2nd listed row) | EC50 (ppm) ([1]; isolate K9032, 3rd listed row) | EC50 (ppm) ([2]; isolate K9029, 1st listed row) | EC50 (ppm) ([2]; isolate K9029, 2nd listed row) | EC50 (ppm) ([2]; isolate K9029, 3rd listed row) | EC50 (ppm) ([3]; isolate K9023, 2nd listed row) | EC50 (ppm) ([3]; isolate K9023, 3rd listed row) | EC50 (ppm) ([3]; isolate K9023) | EC50 (ppm) [4] | EC50 (ppm) [5] | EC50 (ppm) [6] | EC50 (ppm) ([7]; isolate K9026, 1st listed row) | EC50 (ppm) ([7]; isolate K9026, 2nd listed row) | EC50 (ppm) ([7]; isolate K9026, 3rd listed row) | EC50 (ppm) [8] | M = (EC50 (enantiomer)/EC50 (racemate)) − 0.5 ([1]; isolate K9032, 1st listed row) | M = (EC50 (enantiomer)/EC50 (racemate)) − 0.5 ([1]; isolate K9032, 2nd listed row) | M = (EC50 (enantiomer)/EC50 (racemate)) − 0.5 ([1]; isolate K9032, 3rd listed row) | M = (EC50 (enantiomer)/EC50 (racemate)) − 0.5 ([2]; isolate K9029, 1st listed row) | other results |
| --- | --- | --- | --- | --- | --- | --- | --- | --- | --- | --- | --- | --- | --- | --- | --- | --- | --- | --- | --- | --- | --- |
| COC(=O)C(O)(Cn1cncn1)c1ccc(Oc2ccc(Cl)cc2)cc1Cl (racemic) [Racemate Compound I-1] | 0.2 ppm | 0.1 ppm | 0.1 ppm | 0.8 ppm | 3 ppm | 10 ppm | 0.2 ppm | 0.4 ppm | 0.5 ppm | 0.09 ppm | 0.03 ppm | 0.6 ppm | 10 ppm | 0.1 ppm | 0.1 ppm | 0.03 ppm |  |  |  |  |  |
| COC(=O)C(O)(Cn1cncn1)c1ccc(Oc2ccc(Cl)cc2)cc1C(F)(F)F (racemic) [Racemate Compound I-2] | 0.2 ppm | 0.1 ppm | 0.1 ppm | 0.8 ppm | 3 ppm | 10 ppm | 0.1 ppm | 0.3 ppm | 0.3 ppm | 0.09 ppm | 0.03 ppm | 0.7 ppm | 6 ppm | 0.07 ppm | 0.07 ppm | 0.03 ppm |  |  |  |  |  |
| COC(=O)C(O)(Cn1cncn1)c1ccc(Oc2ccc(Cl)cc2)cc1Cl (single isomer, unassigned; (+)) [(+)-enantiomer of Compound I-1, (+)Methyl 2-[2-chloro-4-(4-chlorophenoxy)phenyl]-2-hydroxy-3-(1,2,4-triazol-1-yl)propanoate] | 12 ppm | 7 ppm | 8 ppm | 20 ppm | 20 ppm | 20 ppm | 9 ppm | 19 ppm | 20 ppm | 5 ppm | 2 ppm | 20 ppm | 20 ppm | 5 ppm | 3 ppm | 1 ppm |  |  |  |  |  |
| COC(=O)C(O)(Cn1cncn1)c1ccc(Oc2ccc(Cl)cc2)cc1C(F)(F)F (single isomer, unassigned; (+)) [(+)-enantiomer of Compound I-2] | 7 ppm | 4 ppm | 4 ppm | >20 ppm | >20 ppm | >20 ppm | 6 ppm | 9 ppm | 9 ppm | 3 ppm | 1 ppm | >20 ppm | >20 ppm | 3 ppm | 2 ppm | 0.5 ppm |  |  |  |  |  |
| COC(=O)C(O)(Cn1cncn1)c1ccc(Oc2ccc(Cl)cc2)cc1Cl (single isomer, unassigned; (-)) [(−)-enantiomer of Compound I-1, (−)-Methyl 2-[2-chloro-4-(4-chlorophenoxy)phenyl]-2-hydroxy-3-(1,2,4-triazol-1-yl)propanoate] | 0.1 ppm | 0.06 ppm | 0.06 ppm | 0.3 ppm | 0.8 ppm | 3 ppm | 0.1 ppm | 0.2 ppm | 0.3 ppm | 0.04 ppm | 0.01 ppm | 0.3 ppm | 4 ppm | 0.05 ppm | 0.05 ppm | 0.02 ppm | 0.00 | 0.10 | 0.10 | −0.13 | M = (EC50 (enantiomer)/EC50 (racemate)) − 0.5 ([2]; isolate K9029, 2nd listed row): −0.23; M = (EC50 (enantiomer)/EC50 (racemate)) − 0.5 ([2]; isolate K9029, 3rd listed row): −0.20; effectiveness compared with the racemate (in words) [2]: more effective; M = (EC50 (enantiomer)/EC50 (racemate)) − 0.5 ([3]; isolate K9023, 2nd listed row): 0.00; M = (EC50 (enantiomer)/EC50 (racemate)) − 0.5 ([3]; isolate K9023, 3rd listed row): 0.00; M = (EC50 (enantiomer)/EC50 (racemate)) − 0.5 ([3]; isolate K9023): 0.10; M = (EC50 (enantiomer)/EC50 (racemate)) − 0.5 [4]: −0.06; M = (EC50 (enantiomer)/EC50 (racemate)) − 0.5 [5]: −0.17; effectiveness compared with the racemate (in words) ([5]; summary of Tables A and B): more effective; M = (EC50 (enantiomer)/EC50 (racemate)) − 0.5 [6]: 0.00; M = (EC50 (enantiomer)/EC50 (racemate)) − 0.5 ([7]; isolate K9026, 1st listed row): −0.10; M = (EC50 (enantiomer)/EC50 (racemate)) − 0.5 ([7]; isolate K9026, 2nd listed row): 0.00; M = (EC50 (enantiomer)/EC50 (racemate)) − 0.5 ([7]; isolate K9026, 3rd listed row): 0.00; effectiveness compared with the racemate (in words) ([7]; isolate K9026, summary of Tables A and B): more effective; M = (EC50 (enantiomer)/EC50 (racemate)) − 0.5 [8]: 0.17 |
| COC(=O)C(O)(Cn1cncn1)c1ccc(Oc2ccc(Cl)cc2)cc1C(F)(F)F (single isomer, unassigned; (-)) [(−)-enantiomer of Compound I-2, (−)-Methyl 2-[4-(4-chlorophenoxy)-2-(trifluoromethyl)phenyl]-2-hydroxy-3-(1,2,4-triazol-1-yl)propanoate] | 0.1 ppm | 0.07 ppm | 0.08 ppm | 0.5 ppm | 1 ppm | 5 ppm | 0.1 ppm | 0.2 ppm | 0.3 ppm | 0.05 ppm | 0.02 ppm | 0.4 ppm | 3 ppm | 0.05 ppm | 0.04 ppm | 0.03 ppm | 0.00 | 0.20 | 0.30 | 0.13 | M = (EC50 (enantiomer)/EC50 (racemate)) − 0.5 ([2]; isolate K9029, 2nd listed row): −0.17; M = (EC50 (enantiomer)/EC50 (racemate)) − 0.5 ([2]; isolate K9029, 3rd listed row): 0.00; effectiveness compared with the racemate (in words) [2]: more effective; M = (EC50 (enantiomer)/EC50 (racemate)) − 0.5 ([3]; isolate K9023, 2nd listed row): 0.50; M = (EC50 (enantiomer)/EC50 (racemate)) − 0.5 ([3]; isolate K9023, 3rd listed row): 0.17; M = (EC50 (enantiomer)/EC50 (racemate)) − 0.5 ([3]; isolate K9023): 0.50; M = (EC50 (enantiomer)/EC50 (racemate)) − 0.5 [4]: 0.06; M = (EC50 (enantiomer)/EC50 (racemate)) − 0.5 [5]: 0.17; M = (EC50 (enantiomer)/EC50 (racemate)) − 0.5 [6]: 0.07; M = (EC50 (enantiomer)/EC50 (racemate)) − 0.5 ([7]; isolate K9026, 1st listed row): 0.00; M = (EC50 (enantiomer)/EC50 (racemate)) − 0.5 ([7]; isolate K9026, 2nd listed row): 0.21; M = (EC50 (enantiomer)/EC50 (racemate)) − 0.5 ([7]; isolate K9026, 3rd listed row): 0.07; M = (EC50 (enantiomer)/EC50 (racemate)) − 0.5 [8]: 0.50 |
